Test results from patent US7691874B2, “Neuroprotective properties of dextrorotatory morphinans” (priority 2004, dated 2010).

Experiments:
LPS-treated mice [1] = experiment: LPS model, HM versus L-dopa/carbidopa: mortality; format: in vivo; details: intrastriatal LPS 2 μg x 4/head; 2 weeks
Procedure: Mortality was observed by 2 weeks after LPS injection. *P<0.01 vs. Saline+LPS (x^2-test).
The neuroprotective effect of HM was compared with L-dopa, carbidopa, or carbidopa plus L-dopa in response to dopaminergic damage induced by LPS. Intrastriatal injection of LPS (2 μg×4/head) produced high mortality (ten animals died out of twelve animals in the 2 weeks after LPS administration).

LPS-treated mice [2] = experiment: LPS model, HM versus L-dopa/carbidopa: locomotor activity; format: in vivo; details: 3 weeks after LPS
Procedure: Locomotor activity was examined for 60 min at 3 weeks after LPS treatment. LPS-induced significant reduction (P<0.01 vs. saline treatment) in locomotor activity was attenuated by L-dopa (P<0.05), carbidopa+L-dopa (P<0.05) or HM (P<0.01) (FIGS. 24 and 25).

LPS-treated mice [3] = experiment: LPS model, HM versus L-dopa/carbidopa: nigral TH-IR; details: mouse, in vivo
Text: FIG. 27 show effects of carbidopa, L-dopa, carbidopa+L-dopa and HM on the nigral tyrosine hydroxylase-like immunoreactivity (TH-IR) of the mice treated with LPS.

MA-treated mice [4] = experiment: MA model, HM versus L-dopa/carbidopa: hyperthermia; format: in vivo; details: MA 7.5 mg/kg i.p. x 4
Procedure: FIGS. 31A-31B show effect of drugs on the MA-induced hyperthermia. Mice received MA injections as 2 hrs' time interval under the ambient temperature of 22.0±0.5° C.
Experimental paradigm for MA with or without compounds is in FIG. 30. Treatment with MA (7.5 mg/kg, i.p.×four times as two hour time interval) produces hyperthermia (P<0.01).

MA-treated mice [5] = experiment: MA model, HM versus L-dopa/carbidopa: locomotor activity; format: in vivo; details: 3 days after MA
LPS-treated mice [6] = experiment: LPS model, HM versus L-dopa/carbidopa: microglia F4/80-like immunoreactivity; format: in vivo; details: substantia nigra
MPTP-treated mice [7] = experiment: MPTP model, HM versus L-dopa/carbidopa: locomotor activity; format: in vivo; details: HM 24 mg/kg i.p., L-dopa 200 mg/kg p.o., carbidopa 20 mg/kg p.o., 2 weeks before MPTP
Procedure: FIGS. 20A-20B show effects of carbidopa, L-dopa, carbidopa+L-dopa and HM on the changes in locomotor activity (A) and locomotor pattern (B) induced by MPTP in mice.
A prescription drug for treating Parkinsonian patients is L-dopa or carbidopa plus L-dopa. Thus, the neuroprotective effects of HM was compared with L-dopa, carbidopa, or carbidopa plus L-dopa. […] Locomotor activity was examined for 60 min after final treatment of MPTP. Mice were sacrificed at 24 h after final MPTP administration. HM (24 mg/kg, i.p.), L-dopa (200 mg/kg, p.o.) with or without carbidopa (20 mg/kg, p.o.) was administered for 2 weeks before first MPTP challenge.

LPS-treated mice [8] = experiment: LPS-induced mortality with CB1 agonist/antagonist and HM; format: in vivo
MA-treated mice [9] = experiment: MA-induced loss of nigral TH-IR with CB1 agonist/antagonist and HM
Procedure: Compounds were administered 3 days before and after MA injection.

LPS-treated mice [10] = experiment: LPS-induced loss of nigral TH-IR with CB1 agonist/antagonist and HM; format: in vivo
Procedure: Mortality was observed by 2 weeks after bilateral LPS intrastriatal injection (one side: 2 μg×2).

cocaine-treated mice [11] = experiment: Cocaine-induced behavioural sensitization with CB1 modulation
MA-treated mice [12] = experiment: MA-induced behavioural sensitization
Procedure: Morphinans (20 mg/kg, i.p.) were administered last 3 days of wash-out period.

MPTP-treated mice [13] = experiment: MPTP-induced loss of nigral TH-IR with CB1 agonist/antagonist and HM; format: in vivo; details: combined with HM 20 mg/kg i.p.
Procedure: CB1 agonist or antagonist was administered 45 min before every MPTP, while HM was injected 30 min before every MPTP (20 mg/kg, i.p./day×7). Compounds were administered for 7 days post-final MPTP.

MA-treated mice [14] = experiment: MA-induced conditioned place preference with CB1 modulation
Procedure: (§1) The control mice received an i.p. injection of saline just before entering the white or black compartment. Cocaine or MA dissolved in saline was administered immediately before the mice were placed in the white compartment. To test the effect of cocaine alone or MA alone or in combination with exemplified morphinans (DM, HM, AM, CM or DF), each morphinan was administered 2 hr before cocaine or saline injection.
(§2) On day 1, the mice were pre-exposed to the test apparatus for 5 min. The guillotine doors were raised and the mice were allowed to move freely between the two compartments. On day 2, the time each mouse spent in each compartment was recorded for 15 min. On days 3, 5, 7, 9, 11, and 13, the mice were injected with cocaine before being confined to the white compartment, the non-preferred side, for 20 min. On days 4, 6, 8, 10, and 12, the mice were injected with saline before being confined to the black compartment, the preferred side, for 20 min. On day 14, the guillotine doors were raised. The mice were initially placed in the tunnel and the time spent by the mice in the two compartments was recorded for 15 min. The scores were calculated from the differences in the time spent in the white compartment in the testing and pre-testing phases.

cocaine-treated mice [15] = experiment: Cocaine-induced conditioned place preference with CB1 modulation
Procedure: as §1, §2

`N[C@@H](Cc1ccc(O)c(O)c1)C(=O)O` [L-dopa] was tested, and the “effect on mortality induced by LPS” value (LPS-treated mice [1]) was “appears to attenuate mortality induced by LPS”, the “effect on LPS-induced reduction in locomotor activity” value (LPS-treated mice [2]) was “attenuated” and the “effect on LPS-induced loss in nigral TH-IR” value (LPS-treated mice [3]) was “significantly attenuated”. The “effect on MA-induced hyperthermia” value (MA-treated mice [4]) was “significantly attenenuated”, the “effect on MA-induced reduction in locomotor activity” value (MA-treated mice [5]) was “significantly enhanced” and the “effect on LPS-induced increase in F4/80-like immunoreactivity (microglia)” value (LPS-treated mice [6]) was “significantly attenuated”. The “effect on MPTP-induced decrease in locomotor activity” value (MPTP-treated mice [7]) was “appeared to increase”.

In the case of `CCCCC/C=C\C/C=C\C/C=C\C/C=C\CCCC(=O)NCCCl` [ACEA, arachidonyl-2-chloroethylamide], the “effect on HM-induced protective (anti-mortal) effect” value (LPS-treated mice [8]; combined with HM 20 mg/kg) is reported as “reversed HM-induced protective (anti-mortal) effect”, the “effect on LPS-induced mortality” value (LPS-treated mice [8]; given alone: HM 20, ACEA 2, AM-251 0.3 mg/kg, 2 weeks after bilateral intrastriatal LPS) is reported as “Neither AM-251 nor ACEA significantly changed LPS-induced mortality” and the “effect on MA-induced reduction in TH-IR when combined with HM / on HM's effect” value (MA-treated mice [9]; combined with HM 20 mg/kg) is reported as “reversed HM's protective effect”. For the same compound, the “effect on MA-induced reduction in nigral TH-IR” value (MA-treated mice [9]; given alone) was “did not alter MA-induced reduction in TH-IR”, the “effect on LPS-induced loss in TH-IR when combined with HM / on HM's effect” value (LPS-treated mice [10]; combined with HM) was “counteracted HM's protective effect” and the “effect on LPS-induced reduction in nigral TH-IR” value (LPS-treated mice [10]; given alone) was “did not alter LPS-induced reduction in TH-IR”. For the same compound, the “behavioural effects of the compound itself” value (cocaine-treated mice [11]; AM 251 0.3, ACEA 2, HM 20 mg/kg, no cocaine) was “Neither saline-, AM 251 (0.3 mg/kg)-, ACEA (2 mg/kg)-treated nor HM (20 mg/kg)-treated animals showed any specific behavioural effects”, the “effect on cocaine-induced behavioural sensitization” value (cocaine-treated mice [11]; cocaine 10 mg/kg/day i.p. x 7, challenge one month later) was “Neither ACEA nor AM 251 alter behavioural sensitization by cocaine” and the “effect on HM's effect in response to cocaine-induced sensitization” value (cocaine-treated mice [11]; combined with HM) was “Neither ACEA nor AM 251 significantly alter HM's effect”. The “behavioural effects of the compound itself” value (MA-treated mice [12]; AM 251 0.3, ACEA 2, HM 20 mg/kg, no MA (Ex. 3.14)) was “Neither saline-, AM 251 (0.3 mg/kg)-, ACEA (2 mg/kg)-treated nor HM (20 mg/kg)-treated animals showed any behavioural effects”, the “effect on MA-induced behavioural sensitization (CB1 modulation study)” value (MA-treated mice [12]; MA 1 mg/kg i.p./day x 7, challenge one week later (Ex. 3.14)) was “Neither ACEA nor AM 251 influenced behavioural sensitization by cocaine” and the “effect on HM's effect on MA-induced sensitization” value (MA-treated mice [12]; combined with HM) was “significantly reversed HM's effect”. For the same compound, the “effect on MPTP-induced loss in TH-IR when combined with HM / on HM's action” value (MPTP-treated mice [13]) was “counteracted HM's neuroprotective action”, the “CPP response of the compound itself” value (MA-treated mice [14]; AM 251 0.3, HM 20, ACEA 2 mg/kg i.p., no MA) was “showed CPP effects” and the “effect on HM's effect in response to MA-induced CPP” value (MA-treated mice [14]; combined with HM) was “significantly counteracted”. For the same compound, the “effect on MA-induced CPP” value (MA-treated mice [14]; mouse, in vivo) was “did not alter CPP effects by MA”, the “CPP response of the compound itself” value (cocaine-treated mice [15]; AM 251 0.3, HM 20, ACEA 2 mg/kg, no cocaine) was “showed CPP effects” and the “effect on cocaine-induced CPP” value (cocaine-treated mice [15]; cocaine 10 mg/kg) was “did not alter CPP effects by cocaine”. For the same compound, the “effect on HM's effect in response to cocaine-induced CPP” value (cocaine-treated mice [15]; combined with HM 20 mg/kg) was “appears to counteract the cocaine-induced CPP”.
